Test results published in patent US20240262815A1, “HETEROARYL DERIVATIVE, METHOD FOR PREPARING SAME, AND PHARMACEUTICAL COMPOSITION COMPRISING SAME AS ACTIVE INGREDIENT” (VORONOI INC., priority 2021, published 2024).

Tests used:
[1] = tested on: BT-474 cancer cells; test: Inhibitory activity against proliferation of BT-474 cancer cells (CellTiter-Glo); format: cell-based; conditions: Homo sapiens, BT-474 ErbB2-overexpressing cancer cells, 120 hours after treatment
In short: (§1)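 GI50 derived from % growth relative to control, measured by CellTiter-Glo luminescence after 120 h compound exposure (12 concentrations, 0.2 nM-5 μM final, n=3). BT-474 grown in RPMI-1640/20% FBS, SK-BR-3 in McCOY'S 5A/10% FBS; seeding 48 h pre-treatment.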

[2] = tested on: SK-BR-3 cancer cells; test: Inhibitory activity against proliferation of SK-BR-3 cancer cells (CellTiter-Glo); format: cell-based; conditions: Homo sapiens, SK-BR-3, 120 h, ErbB2-overexpressing SK-BR-3 cells, 120 hours after treatment
In short: as §1

Structure (SMILES)	GI50 [1] [nM]	GI50 [2] [nM]
COc1cc(N2CCN(C)CC2)c(NC(=O)/C=C/CN(C)C)cc1Nc1cc(N2OCC[C@@H]2c2cccc(-c3cccc(F)c3)c2)ncn1 [Example 285, (R,E)-4-(dimethyl-amino)-N-(5-((6-(3-(3′-fluoro-[1,1′-biphenyl]-3-yl)-isoxazolidin-2-yl)-pyrimidin-4-yl)-amino)-4-methoxy-2-(4-methylpiper-azin-1-yl)phenyl)-but-2-enamide]	< 50	< 50
C=CC(=O)Nc1cc(Nc2cc(N3OCC[C@@H]3c3cccc(-c4cccc(F)c4)c3)ncn2)c(OC)cc1N1CCO[C@@H](C)C1 [Example 286, N-(5-((6-((R)-3-(3′-fluoro-[1,1′-biphenyl]-3-yl)-isoxazolidin-2-yl)-pyrimidin-4-yl)-amino)-4-methoxy-2-((S)-2-methyl-morpholino)phen-yl)acrylamide]	< 50	< 50
C=CC(=O)Nc1cc(Nc2cc(N3OCC[C@@H]3c3cccc(-c4cccc(F)c4)c3)ncn2)c(OC)cc1N1C[C@H]2C[C@@H]1CO2 [Example 287, N-(2-((1R,4R)-2-oxa-5-azabicyclo-[2.2.1]heptan-5-yl)-5-((6-((R)-3-(3′-fluoro-[1,1′-biphenyl]-3-yl)-isoxazolidin-2-yl)-pyrimidin-4-yl)-amino)-4-meth-oxyphenyl)acryl-amide]	< 50	< 50
C=CC(=O)Nc1cc(Nc2cc(N3OCC[C@@H]3c3cccc(-c4cccc(F)c4)c3)ncn2)c(OC)cc1N1CCN(C)C(=O)C1 [Example 288, (R)-N-(5-((6-(3-(3′-fluoro-[1,1′-biphenyl]-3-yl)-isoxazolidin-2-yl)-pyrimidin-4-yl)-amino)-4-meth-oxy-2-(4-methyl-3-oxopiperazin-1-yl)phenyl)acryl-amide]	< 50	< 50
C=CC(=O)Nc1cc(Nc2cc(N3OCC[C@@H]3c3cccc(-c4cccc(F)c4)c3)ncn2)c(OC)cc1N1C[C@@H](C)O[C@@H](C)C1 [Example 292, N-(2-((2S,6R)-2,6-dimethylmorpho-lino)-5-((6-((R)-3-(3′-fluoro-[1,1′-biphenyl]-3-yl)-isoxazolidin-2-yl)-pyrimidin-4-yl)-amino)-4-methoxy-phenyl)acrylamide]	< 50	< 50
C=CC(=O)Nc1cc(Nc2cc(N3OCC[C@@H]3c3cccc(-c4cccc(F)c4)c3)ncn2)c(OC)cc1N1CCN(C2COC2)CC1 [Example 293, (R)-N-(5-((6-(3-(3′-fluoro-[1,1′-biphenyl]-3-yl)-isoxazolidin-2-yl)-pyrimidin-4-yl)-amino)-4-methoxy-2-(4-(oxetan-3-yl)-piperazin-1-yl)-phenyl)acrylamide]	50 to 500	< 50
C=CC(=O)Nc1cc(Nc2cc(N3OCC[C@@H]3c3cccc(-c4cccc(F)c4)c3)ncn2)c(OC)cc1N1CC2(CN(C(=O)OC(C)(C)C)C2)C1 [Example 295, tert-butyl (R)-6-(2-acrylamido-4-((6-(3-(3′-fluoro-[1,1′-biphenyl]-3-yl)-isoxazolidin-2-yl)-pyrimidin-4-yl)-amino)-5-methoxy-phenyl)-2,6-diazaspiro[3.3]-heptane-2-carbox-ylate]	< 50	50 to 500
C=CC(=O)Nc1cc(Nc2cc(N3OCC[C@@H]3c3cccc(-c4ccc(OC)nc4)c3)ncn2)c(OC)cc1N(C)CCN(C)C [Example 300, (R)-N-(2-((2-(dimethylamino)-ethyl)(methyl)-amino)-4-methoxy-5-((6-(3-(3-(6-methoxypyridin-3-yl)phenyl)isox-azolidin-2-yl)pyr-imidin-4-yl)amino)-phenyl)acrylamide]	< 50	< 50
C=CC(=O)Nc1cc(Nc2cc(N3OCC[C@@H]3c3cccc(-c4cnc(C)c(F)c4)c3)ncn2)c(OC)cc1N1CCN(C)CC1 [Example 302, (R)-N-(5-((6-(3-(3-(5-fluoro-6-meth-ylpyridin-3-yl)-phenyl)isoxazol-idin-2-yl)pyrim-idin-4-yl)amino)-4-methoxy-2-(4-methylpiperazin-1-yl)phenyl)acryl-amide]	< 50	50 to 500
C=CC(=O)Nc1cc(Nc2cc(N3OCC[C@@H]3c3cccc(-c4cnc(C)c(F)c4)c3)ncn2)c(OC)cc1N(C)CCN(C)C [Example 303, (R)-N-(2-((2-(dimethylamino)-ethyl)(methyl)-amino)-5-((6-(3-(3-(5-fluoro-6-methylpyridin-3-yl)phenyl)isoxazol-idin-2-yl)pyrim-idin-4-yl)amino)-4-methoxyphenyl)-acrylamide]	< 50	< 50

Continued, values first:

GI50 [1] [nM]	GI50 [2] [nM]	Structure (SMILES)
< 50	< 50	C=CC(=O)Nc1cc(Nc2cc(N3OCC[C@@H]3c3cccc(-c4cccc(F)c4)c3)ncn2)c(OC)cc1N1CCN(C(C)=O)CC1 [Example 289, (R)-N-(2-(4-acetyl-piperazin-1-yl)-5-((6-(3-(3′-fluoro-[1,1′-biphenyl]-3-yl)isoxazolidin-2-yl)pyrimidin-4-yl)-amino)-4-methoxy-phenyl)acrylamide]
< 50	< 50	C=CC(=O)Nc1cc(Nc2cc(N3OCC[C@@H]3c3cccc(-c4cccc(F)c4)c3)ncn2)c(OC)cc1N1CCS(=O)(=O)CC1 [Example 290, (R)-N-(2-(1,1-dioxidothiomorph-olino)-5-((6-(3-(3′-fluoro-[1,1′-biphen-yl]-3-yl)isoxazol-idin-2-yl)pyrim-idin-4-yl)amino)-4-methoxyphen-yl)acrylamide]
< 50	< 50	C=CC(=O)Nc1cc(Nc2cc(N3OCC[C@@H]3c3cccc(-c4cccc(F)c4)c3)ncn2)c(OC)cc1N1CCN(S(C)(=O)=O)CC1 [Example 294, (R)-N-(5-((6-(3-(3′-fluoro-[1,1′-biphenyl]-3-yl)-isoxazolidin-2-yl)-pyrimidin-4-yl)-amino)-4-methoxy-2-(4-(methylsulfon-yl)piperazin-1-yl)-phenyl)acrylamide]
< 50	< 50	C=CC(=O)Nc1cc(Nc2cc(N3OCC[C@@H]3c3cccc(C#Cc4ccccc4)c3)ncn2)c(OC)cc1N(C)CCN(C)C [Example 297, (R)-N-(2-((2-(dimethylamino)-ethyl)(methyl)-amino)-4-methoxy-5-((6-(3-(3-(phen-ylethynyl)phenyl)-isoxazolidin-2-yl)-pyrimidin-4-yl)-amino)phenyl)-acrylamide]
< 50	< 50	C=CC(=O)Nc1cc(Nc2cc(N3OCC[C@@H]3c3cccc(-c4ccc(OC)nc4)c3)ncn2)c(OC)cc1N1CCN(C)CC1 [Example 298, (R)-N-(4-methoxy-5-((6-(3-(3-(6-methoxypyridin-3-yl)phenyl)-isox-azolidin-2-yl)-pyrimidin-4-yl)-amino)-2-(4-meth-ylpiperazin-1-yl)-phenyl)acrylamide]
< 50	50 to 500	C=CC(=O)Nc1cc(Nc2cc(N3OCC[C@@H]3c3cccc(-c4ccc(O)nc4)c3)ncn2)c(OC)cc1N(C)CCN(C)C [Example 301, (R)-N-(2-((2-(dimethylamino)-ethyl)(methyl)-amino)-5-((6-(3-(3-(6-hydroxy-pyridin-3-yl)phen-yl)-isoxazolidin-2-yl)pyrimidin-4-yl)amino)-4-meth-oxyphenyl)acryl-amide]
